In patent US9694061B2, “Fully human antibodies to high molecular weight-melanoma associated antigen and uses thereof” (University of Pittsburgh—Of the Commonwealth System of …, priority 2008, dated 2017):

Tests used:
scFv C21 [1] = experiment: Inhibition by synthetic peptides of scFv C21 binding to Colo38 cells; design: species or system human; conditions: for Inhibition of the binding of scFv C21 to HMW-MAA+ melanoma cells Colo38: soluble peptide, FIG. 8
Method: FIG. 8. Inhibition of the reactivity of scFv C21 with HMW-MAA^+ cells Colo38 by synthetic peptides P1C21 and P3C21 and by modified peptide P3C21. Varying concentrations of synthetic peptides P1C21 (-●-), P3C21(-▴-), P3A5 (-⋄-), P3V7 ( ? ) and P3S10 ( ? ) were incubated for 2 h at 4° C. with 50 μl of PP scFv (1:1600 dilution in 1% BSA-PBS) and 50 μl of biotinylated mAb 9E10 (2.5 μg/ml 1% BSA-PBS). The mixture was then transferred to wells containing cells Colo38. Binding of scFvC21 was detected using SA-HRP (top panel). Results are expressed as % inhibition. The unrelated peptide MART-1 (-∇-) and the scFv #28 (bottom panel) which recognizes an unrelated HMW-MAA determinant were used as specificity controls.
The ELISA to test the reactivity of soluble scFv antibodies with synthetic peptides and melanoma cells and of mouse immune sera with melanoma cells and with peptides was performed as described (Desai et al., Cancer Res 58:2417-2425, 1998; Desai et al., J Immunol 165:3275-3283, 2000; Matsui et al., J Immunol 139:2088-2095, 1987). Results are expressed as absorbance of optical density (O.D.) at 450 nm. The competition assay to map the antigenic determinant recognized by scFv C21 was performed by mixing biotinylated scFv C21 (0.25 μg/well) with two-fold dilutions of mouse mAb or scFv PP or by mixing biotinylated mAb (at an optimal amount giving absorbance, measured at 450 nm of 1.0) with two fold dilutions of scFv PP. […] Binding of biotinylated scFv antibodies and biotinylated mAb to target cells was measured by sequential incubation with SA-HRP and substrate as described (Noronha et al., J Immunol 161:2968-2976, 1998). The results are expressed as percent inhibition by mAb, scFv or peptide (competitor or inhibitor) of scFv or mAb binding to HMW-MAA^+ cells. The percent inhibition was calculated using the formula: % inhibition=((OD450 in the absence of inhibitor−OD450 in the presence of inhibitor)/OD450 in the absence of inhibitor)×100.

scFv C21 [2] = experiment: ELISA of synthetic peptides immobilized on plate with scFv C21; type: binding, human; conditions: peptide immobilized by 0.25% glutaraldehyde PBS
Method: FIG. 7. Reactivity in ELISA of scFv C21 with synthetic peptides derived from those isolated by panning the phage display peptide library X15 with scFv C21. Ninety-six well plates were coated for 2 h at 37° C. with synthetic peptides P1C21 ( ? ), P2C21 (125 μM) ( ? ), and P3C21 (125 μM) ( ? ), in 0.25% glutaradehyde-PBS. Following blocking with PBS-1% BSA, wells were incubated for 2 h at room temperature with 50 μl of PP scFv C21 at and 50 μl of biotinylated mAb 9E10 (2.5 μg/ml 1% BSA-PBS). Binding of scFv antibody to ? peptides was detected by addition of SA-HRP. Results are expressed as absorbance at […]. […]
The ELISA to test the reactivity of soluble scFv antibodies with synthetic peptides and melanoma cells and of mouse immune sera with melanoma cells and with peptides was performed as described (Desai et al., Cancer Res 58:2417-2425, 1998; Desai et al., J Immunol 165:3275-3283, 2000; Matsui et al., J Immunol 139:2088-2095, 1987). Results are expressed as absorbance of optical density (O.D.) at 450 nm. The competition assay to map the antigenic determinant recognized by scFv C21 was performed by mixing biotinylated scFv C21 (0.25 μg/well) with two-fold dilutions of mouse mAb or scFv PP or by mixing biotinylated mAb (at an optimal amount giving absorbance, measured at 450 nm of 1.0) with two fold dilutions of scFv PP. […]

HMW-MAA^+ cells Colo38 = experiment: Delayed-type hypersensitivity (DTH) reaction in immunized mice; type: in vivo, BALB/c mice; conditions: mice immunized six times, cells injected day 132
Method: FIG. 12. DTH reaction to HMW-MAA^+ melanoma cells Colo38 in BALB/c mice immunized with peptide P1C21. Irradiated (20K rads) HMW-MAA^+ cells Colo38 (5×10^5 cells/mouse) ( ? ) and HMW-MAA^− LG2 cells (5×10^5 cells/mouse) (□) were injected on day 132 into the right and left hind footpad, respectively, of BALB/c mice, which had been immunized six times with peptide P1C21 on days 0, 21, 42, 63, 84 and 105. Amount of swelling induced by the injected cells was measured and calculated by subtracting the thickness of the footpad measured at time 0 h from that measured 24 h after the injection of cells. Mice immunized with control peptide MB1194-208 using the same schedule were injected at the same time point with either Colo38 or LG2 cells, and used as controls. *p<0.05.
Mice which had been immunized six times with peptide P1C21 or control peptide were injected on day 132 s.c. into the right and left hind footpads with irradiated HMW-MAA^+ cells Colo38 (5×10^5 cells/injection/) and HMW-MAA^− cells LG2 (5×10^5 cells/injection/), respectively. The thickness of each footpad was measured and calculated at the indicated times as previously described (Luo et al., J Immunol 174:7104-7110, 2005, herein incorporated by reference).

[3] = system: HMW-MAA^+ melanoma cells Colo38; experiment: Immunization of BALB/c mice with peptide-KLH conjugate, HMW-MAA-specific antibodies in sera; type: in vivo; conditions: control peptide immunization
Method: FIG. 9. Development of antibodies with selective reactivity with HMW-MAA^+ cells Colo38 in BALB/c mice immunized with peptide P1C21 and boosted with Colo 38 cells. Mice were immunized with KLH-conjugated peptide P1C21 ( ? ) (50 μg/injection) on day 0, 21, 42, 63, 84 and 105, and with HMW-MAA^+ Colo38 melanoma cells (5×10^5 cells/injection) on day 132. Sera were harvested one week before the first immunization, and one week after each immunization. Two-fold dilutions of sera (100 μl/well) were incubated with HMW-MAA^+ Colo38 melanoma cells (1×10^5/well). Following an additional incubation with HRP-conjugated goat anti-mouse IgG antibodies, the reaction was developed using TMB substrate. O.D. was measured at 450 nm. Results are expressed as the mean±SD of the highest dilution of sera giving 50% of the maximal binding to HMW-MAA^+ cells. Sera from mice immunized with peptide MB1194-208 were used as controls. *p<0.05.
FIG. 10. Flow cytometry analysis of HMW-MAA^+ M14#5/HMW-MAA melanoma cells stained with antibodies elicited by peptide P1C21 and HMW-MAA^+ cells Colo38 in BALB/c mice. […] Cells were then analyzed with a FACScan™ flow cytometry. Results are expressed as fluorescence intensity (empty histogram). […]
FIG. 11. […] Antigens were eluted from the immunoadsorbent, and analyzed by SDS-PAGE in an 8% polyacrylamide gel. […]

scFv C21 [4] = experiment: Kinetic binding studies by surface plasmon resonance (BIACORE 3000); design: species or system human; conditions: scFv C21 immobilized, 25° C., peptide 1 to 32 μM, 1:1 Langmurian model
Method: Binding experiments were performed with the surface plasmon resonance based biosensor instrument BIACORE™ 3000 (Biacore AB, Uppsala, Sweden), at 25° C. Immobilization of scFv C21 in the sensor surface was performed following the standard amine coupling procedure according to the manufacturer's instructions. Briefly, 35 μl of a solution containing 0.2 M N-ethyl-N′-(dimethylaminopropyl) carbodiimide (EDC) and 0.05M N-hydroxysuccinimide (NHS), were injected at a flow rate of 5 μl/min to activate carboxyl groups on the sensor chip surface. scFv C21 ([…] of 10 mM NaOAc buffer, pH 5.0) was flowed over the chip surface at a flow rate of 20 μl/min until the desired bound protein level was reached. Unreacted scFv C21 was washed out and unreacted activated groups were blocked by the injection of 35 μl of 1 M ethanolamine at 5 μl/min. The final immobilization response of scFv C21 was 3,000 RU. A reference surface was generated simultaneously under the same conditions but without scFv C21 injection and used as a blank to correct for instrument and buffer artifacts. Peptides were injected at variable concentrations at different flow rates from 20-100 μl/min. Peptides binding to scFv C21 immobilized on the chip was monitored in real time.
To exclude that binding constants obtained from SPR were not affected by either rebinding of the analyte or mass transport effects, studies were repeated at different flow rates (20-100 μl/min). Kinetic constants obtained at both flow rates remained unchanged.
To evaluate binding, peptides P1C21 and P3C21 were injected at concentrations ranging from 1 to 32 μM. The resulting sensograms were used for estimation of the kinetic constants (kon and koff) by global fitting to the 1:1 Langmurian interaction model. The binding constant (Kd) was calculated for each peptide as a koff/kon ratio.

| Substance | Inhibition of the binding of scFv C21 to HMW-MAA+ melanoma cells Colo38 (scFv C21 [1]) | Reactivity of immobilized synthetic peptide with scFv C21 in ELISA (scFv C21 [2]) | DTH response: swelling of footpad injected with Colo38 cells versus LG2 cells (HMW-MAA^+ cells Colo38) | Reactivity of immune sera with Colo38 cells [3] | Koff (scFv C21 [4]) | Kon (scFv C21 [4]) | Effect of Asp to Ser replacement at position 10 on ability of P3C21 to inhibit reactivity of scFv C21 with Colo38 cells (scFv C21 [1]; compared with P3C21) |
| --- | --- | --- | --- | --- | --- | --- | --- |
| EARNWHDFPIHPRTL (listed as Homo sapiens) [P2C21] | did not inhibit the binding of scFv C21 | reacted specifically with scFv C21 |  |  |  |  |  |
| MB1194-208: irrelevant peptide derived from the sequence of the proteasome subunit MB1, used as control (AYGVMDRGYSYDLEV) |  |  | no swelling of the footpad was observed | displayed no reactivity with Colo38 cells |  |  |  |
| RPYRYDPLGDLKSRH [P3C21] | inhibited the binding of scFv C21 to HMW-MAA^+ cells in a dose dependent fashion | did not |  |  | 0.0655 s⁻¹ | 2170 M⁻¹ s⁻¹ |  |
| RPYRYDPLGSLKSRH [P3S10] |  |  |  |  | 0.00307 s⁻¹ | 917 M⁻¹ s⁻¹ | only a slight effect |
